Test results as given in patent US20200270588A1, “GLUCOSYL TRANSFERASE POLYPEPTIDES AND METHODS OF USE” (Syngenta Participations AG, priority 2017, published 2020).

Assays:
[1] = tested on: non-transgenic w/t Zea mays seedlings; experiment: LC/MS of foliar extracts after herbicide treatment; assay type: in vivo; conditions: 24 and 48 h after treatment, 80% acetonitrile/water extract
Method: (§1) The expected glucosides of herbicides V and VI corresponding to those seen in vitro are also similarly produced in transgenic […] plants expressing Zea mays BX9 or expressing mutant derivatives of Zea mays BX9. For example, LC/MS analysis of extracts of leaves obtained by maceration and extraction into 80% acetonitrile/water 24 and 48 h after treatment with herbicides V and VI indicate that the same beta-glucosides that are produced by the enzymes in vitro are produced in planta.

[2] = tested on: transgenic tobacco plants expressing SEQ ID NO1 or SEQ ID NO 17; experiment: LC/MS of foliar extracts after herbicide treatment; assay type: in vivo; conditions: 24 and 48 h after treatment, 80% acetonitrile/water extract
Method: as §1

[3] = tested on: Larkspur bx glucosyl transferase (SEQ ID NO 10); experiment: UDP-Glo glucosyl transferase assay, purified enzyme; assay type: biochemical; conditions: 1 mM herbicide V
Method: (§2) Glucosyl transferase activity is assayed via measurement of acceptor substrate-dependent production of UDP from ultrapure UDP-glucose using the Promega UDP-Glo™ method and according to the manufacturer's instructions. Assays are run in 96 well microtiter plates.
(§3) Enzyme, typically at a stock concentration of ˜2 mg/ml is diluted to an appropriate concentration in 50 mM K^+ Hepes buffer at pH7.5 containing 0.5 mg/mL bovine serum albumin (BSA) and 5 ul aliquots of this diluted enzyme added to each well of a Perkin Elmer white ½ area 96 well plate. […] Assays are run for an appropriate time (usually 10 to 60 min) so that the amount of UDP formed lies within the most nearly linear part of the UDP standard curve and are stopped with the addition and mixing of 25 ul UDP-Glo™ detection reagent (prepared as described below). Plates are then incubated at room temperature for 60 minutes and then read in a luminescence plate reader (Perkin Elmer Envision 2130 Multilabel Reader). A UDP standard curve is run alongside each set of assays and reagent blank control assays run with DMSO in place of test herbicide. Typically, 300 pmol of UDP corresponds to a Relative Luminescence Unit (RLU) reading of about 1.5E7 and the response curve between 0 and 600 pmol is fitted to a polynomial function (see for example FIG. 2).
(§4) The UDP-Glo™ reagents are made up and used according to the manufacturer's instructions. Thus, Nucleotide Detection Buffer and ATP are combined to make nucleotide detection reagent (NDR) dispensed into aliquots and frozen to be freshly thawed before use.
(§5) Km and kcat values in respect of UDP-glucose are derived by carrying out experiments to measure initial rates over a suitable range of concentrations of UDP glucose out at a fixed near saturating concentration of acceptor substrate. Best fit values of kcat, Km and kcat/Km are obtained by direct fitting of the data to the Michaelis-Menten equation using Graphpad Prism™ software.
(§6) DNA sequences, optimized for E. coli codon usage, corresponding to SEQ IDs 1-15, encoding BX8 and BX9 orthologue polypeptides derived from a range of species (as depicted in FIG. 1) were synthesized by Genewiz (South Plainfield, USA) with 5′ NdeI and 3′ XhoI restriction sites. The various orthologues were synthesized with either a N-terminal 6×His purification tag or C-terminal 6×His purification tag (i.e. tried both ways to achieve best expression of activity) and cloned into the E. coli expression plasmid pET24a (Novagen) via the NdeI and XhoI restriction sites. Expression, purification and assay was as described in Example 1.
(§7) Assays were carried out as described in Example 1. Partly purified C-terminally his tagged w/t Larkspur enzyme (SEQ ID No 10 with a 6 amino acid C-terminal tag) catalyzed glucosyl transfer to herbicide V at a rate estimated to be about 0.0065/s/pmol at 1 mM herbicide V. The similarly-tagged w/t bx-like enzymes from rye (SEQ ID No 11) and from wheat (SEQ ID No 4) were also active but only at levels close to the detection limit at ˜0.0015/s/pmol. Further examples of assay results from further experiments are depicted in Table 14. All of the proteins were C-terminally his tagged versions of the sequences referenced except for the Zea mays bx8 SEQ ID NO: 2 which was N-terminally his tagged.

[4] = tested on: rye bx-like glucosyl transferase (SEQ ID No 11); experiment: as above; assay type: biochemical; conditions: herbicide V; close to the detection limit
Method: as §2, §3, §4, §5, §6, §7

[5] = target: T1, Zea mays bx8 (SEQ ID No: 2) with GIGVD peptide insert in place of D442 (Zea mays, UniProt Q8W2B7, INS441GIGV); experiment: LC/MS glucosyl transferase assay (glucoside peak area), purified enzyme; assay type: biochemical; conditions: LC/MS assay run for 30 min
T1 construct: His tag (N); made in house; host or cells: E. coli, pET24a
T1 sequence (Q8W2B7 other isoform, or with tags, fused parts or gaps INS441GIGV): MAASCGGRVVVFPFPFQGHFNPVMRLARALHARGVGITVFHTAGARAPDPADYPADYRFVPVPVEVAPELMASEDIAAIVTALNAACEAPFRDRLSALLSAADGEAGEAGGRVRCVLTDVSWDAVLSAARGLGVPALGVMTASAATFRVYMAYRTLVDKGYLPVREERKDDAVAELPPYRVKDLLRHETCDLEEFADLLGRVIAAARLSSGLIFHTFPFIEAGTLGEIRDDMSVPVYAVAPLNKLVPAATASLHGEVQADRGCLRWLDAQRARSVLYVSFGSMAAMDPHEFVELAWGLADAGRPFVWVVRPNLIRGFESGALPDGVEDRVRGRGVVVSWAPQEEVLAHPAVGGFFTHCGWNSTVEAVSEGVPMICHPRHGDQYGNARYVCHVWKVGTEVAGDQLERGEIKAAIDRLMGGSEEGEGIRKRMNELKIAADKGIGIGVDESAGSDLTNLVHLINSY
Method: In an alternative method for assaying the various enzymes, the test glucosyl transferase enzyme is reacted with substrates exactly as above except that the assay is stopped by adding an equal volume of acetonitrile. Alternatively 50 or 100 μl samples from assay reactions are added to 500 μl ethyl acetate to stop the reaction. In this case samples are then vortexed and 400 μl of the ethyl acetate partition removed, dried down, and resuspended in 100 μl 80:20 acetonitrile/water. The formation of product gluco side and/or disappearance of substrate test herbicide is then monitored directly by LC/MS. Samples are analyzed by LC-MS using an Agilent 1290 liquid chromatography system and Thermo Q-Exactive mass spectrometer. The chromatography is achieved on a Waters Acquity C18 BEH (50×2.1 mm) 1.7 μm particle size column, using a 6 minute gradient run of Water (0.2% formic acid) and Acetonitrile. The Q-Exactive is operated in positive ionisation electrospray mode, using Full scan-AIF mode, at 35,000 resolution, between 100-800 m/z. All analytes are identified from the full scan data to within at least 5 ppm accuracy of their predicted pseudo-molecular ion [M+H]^+ m/z value. In order to obtain quantitative data standard curves are run using herbicides and herbicide glucosides synthesized as standards. […]

CON1C(=O)N(c2cc(C(F)(F)F)ccn2)C(O)[C@@H]1C (some centres unmarked) [Compound VI]
glucoside found in foliar extract [1]: the S-beta stereoisomer O-glucoside product of VI
glucoside found in foliar extract [2]: mainly the S-beta stereoisomer O-glucoside product of VI

CN1CC(O)N(c2cc(C(F)(F)F)ccn2)C1=O (centres unmarked) [Compound V]
rate of glucosyl transfer [3]: about 0.0065 /s/pmol
rate of glucosyl transfer [4]: ~0.0015 s⁻¹ pmol⁻¹
integrated peak area of glucoside product [5]: 2.5E6 units
